Each compound was assayed against T1, ROCKII or ROKα (Rattus norvegicus, UniProt Q62868) (assay: Determination of Rho kinase inhibition (33P-ATP, Streptavidin Flash Plate)). Conditions: ATP 40 μM, activity denoted as pIC50 classes.
T1 construct: purchased Upstate 14-451
Format: biochemical
Procedure: Determination of Rho Kinase Inhibition
To measure Rho-kinase inhibition, IC50 values were determined according to the following protocol:
Buffer: 25 mM Tris pH7.5; 0.02% BSA; 5% Glycerol; 0.008% Triton X100; 2% DMSO, 1 mM DTT; 1 mM MgCl2; 0.5 μCi/well γ^33P ATP
Enzyme: ROCKII or ROKα) (Upstate, Catalog #14-451 Lot # 24880U) 0.1 ng/μl
Final concentration of ATP in reaction mixture 40 μM
Biotinylated substrate, diluted to 0.25 μM with buffer described above (without ATP) • 1. 10 μl Tris buffer (±Inhibitor) • 2. Add 30 μL of enzyme solution • 3. Start the reaction with 30 μL of mix substrate/ATP/ATP33 • 4. Incubate for 20 min at room temperature • 5. Stop reaction with 30 μL of 50 mM EDTA • 6. Transfer 50 μL of stopped solution to Streptavidin Flash Plate plus, Perkin Elmer, SMP 103A • 7. Incubate for 30 min at RT • 8. Wash 4 times with 300 μl of PBS/0.1% Tween 20 • 9. Radioactivity in the well was determined

T1 sequence (Q62868 11-552 limits assumed): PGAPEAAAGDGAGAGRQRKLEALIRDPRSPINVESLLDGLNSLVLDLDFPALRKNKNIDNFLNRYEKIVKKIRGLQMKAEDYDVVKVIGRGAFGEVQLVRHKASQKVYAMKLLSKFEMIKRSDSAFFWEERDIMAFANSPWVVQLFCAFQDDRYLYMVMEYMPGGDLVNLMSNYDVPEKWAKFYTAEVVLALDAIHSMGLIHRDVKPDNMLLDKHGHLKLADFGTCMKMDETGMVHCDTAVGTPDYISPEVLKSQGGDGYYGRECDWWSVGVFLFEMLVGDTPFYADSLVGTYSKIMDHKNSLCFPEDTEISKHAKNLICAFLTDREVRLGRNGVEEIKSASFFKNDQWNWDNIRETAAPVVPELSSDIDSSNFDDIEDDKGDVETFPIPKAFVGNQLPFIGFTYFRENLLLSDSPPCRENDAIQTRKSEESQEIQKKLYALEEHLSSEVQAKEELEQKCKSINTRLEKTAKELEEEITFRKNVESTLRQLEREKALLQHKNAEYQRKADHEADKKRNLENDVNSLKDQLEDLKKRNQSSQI

Row | SMILES | IC50
1 | CC1(c2ccc(CNC3CCC(Oc4ccc5cnccc5c4)CC3)cc2)NC(=O)NC1=O.O=C(O)C(F)(F)F (mixture of isomers) [Example 38, 5-(4-{[4-(isoquinolin-6-yloxy)-cyclohexylamino]-methyl}-phenyl)-5-methyl-imidazolidine-2,4-dione] | +++++ (6.0 ≦ pIC50)
2 | CC(C)CN(C)C1CCC(Oc2ccc3cnccc3c2)CC1.O=C(O)C(F)(F)F (mixture of isomers) [Example 45, Isobutyl-[4-(isoquinolin-6-yloxy)-cyclohexyl]-methyl-amine] | ++++ (5.0 ≦ pIC50 < 6.0)
3 | CN(Cc1cnn(-c2ccc(F)cc2)c1)C1CCC(Oc2ccc3cnccc3c2)CC1.O=C(O)C(F)(F)F (mixture of isomers) [Example 52, [1-(4-Fluoro-phenyl)-1H-pyrazol-4-ylmethyl]-[4-(isoquinolin-6-yloxy)-cyclohexyl]-methyl-amine] | ++++ (5.0 ≦ pIC50 < 6.0)
4 | O=C(O)C(F)(F)F.c1ccc2c(CNC3CCC(Oc4ccc5cnccc5c4)CC3)cccc2c1 (mixture of isomers) [Example 54, [4-(Isoquinolin-6-yloxy)-cyclohexyl]-naphthalen-1-ylmethyl-amine] | ++++ (5.0 ≦ pIC50 < 6.0)
5 | O=C(O)C(F)(F)F.c1csc(-c2nc(CNC3CCC(Oc4ccc5cnccc5c4)CC3)cs2)c1 (mixture of isomers) [Example 58, [4-(Isoquinolin-6-yloxy)-cyclohexyl]-(2-thiophen-2-yl-thiazol-4-ylmethyl)-amine] | ++++ (5.0 ≦ pIC50 < 6.0)
6 | N[C@H]1CC[C@@H](Oc2ccc3cnccc3c2Cl)CC1 [Example 13, cis-4-(5-Chloro-isoquinolin-6-yloxy)-cyclohexylamine] | +++++ (6.0 ≦ pIC50)
7 | N[C@H]1CC[C@@H](Oc2ccc3cncc(Cl)c3c2)CC1 [Example 14, cis-4-(4-Chloro-isoquinolin-6-yloxy)-cyclohexylamine] | +++++ (6.0 ≦ pIC50)
8 | N[C@H]1CC[C@@H](Oc2ccc3cnccc3c2Br)CC1 [Example 19, cis-4-(5-Bromo-isoquinolin-6-yloxy)-cyclohexylamine] | +++++ (6.0 ≦ pIC50)
9 | c1cncc(CN[C@H]2CC[C@@H](Oc3ccc4cnccc4c3)CC2)c1 [Example 23, cis-[4-(Isoquinolin-6-yloxy)-cyclohexyl]-pyridin-3-ylmethyl-amine] | +++++ (6.0 ≦ pIC50)
10 | CC(C)N[C@H]1CC[C@@H](Oc2ccc3cnccc3c2)CC1 [Example 26, Isopropyl-cis-[4-(isoquinolin-6-yloxy)-cyclohexyl]-amine] | +++++ (6.0 ≦ pIC50)
11 | CCOC(=O)N1CCN(C2CCC(Oc3ccc4cnccc4c3)CC2)CC1.O=C(O)C(F)(F)F (stereo not shown) [Example 44, 4-[4-(Isoquinolin-6-yloxy)-cyclohexyl]-piperazine-1-carboxylic acid ethyl ester] | ++++ (5.0 ≦ pIC50 < 6.0)
12 | c1cc2cc(O[C@H]3CC[C@@H](NC4CC4)CC3)ccc2cn1 [Example 64, cis-Cyclopropyl-[4-(isoquinolin-6-yloxy)-cyclohexyl]-amine] | +++++ (6.0 ≦ pIC50)
13 | CC(=O)Nc1ccc(CN[C@H]2CC[C@@H](Oc3ccc4cnccc4c3)CC2)cc1 [Example 72, cis-N-(4-{[4-(Isoquinolin-6-yloxy)-cyclohexylamino]-methyl}-phenyl)-acetamide] | +++++ (6.0 ≦ pIC50)
14 | CN(C)/C=N/S(=O)(=O)c1cc(CN[C@H]2CC[C@@H](Oc3ccc4cnccc4c3Cl)CC2)ccc1Cl [Example 74, 2-Chloro-5-{cis-[4-(5-chloro-isoquinolin-6-yloxy)-cyclohexylamino]-methyl}-N-dimethylaminomethylene-benzenesulfonamide] | +++++ (6.0 ≦ pIC50)
15 | Clc1c(OC2CCC(NC3CCCCC3)CC2)ccc2cnccc12 (stereo not shown) [Example 80, [4-(5-Chloro-isoquinolin-6-yloxy)-cyclohexyl]-cyclohexyl-amine] | +++++ (6.0 ≦ pIC50)
16 | Cl.N[C@H]1CC[C@@H](Oc2ccc3cnccc3c2-c2ccsc2)CC1 [Example 87, cis-4-(5-Thiophen-3-yl-isoquinolin-6-yloxy)-cyclohexylamine] | +++++ (6.0 ≦ pIC50)
17 | C=Cc1c(O[C@H]2CC[C@@H](N)CC2)ccc2cnccc12.Cl [Example 90, cis-4-(5-Vinyl-isoquinolin-6-yloxy)-cyclohexylamine] | +++++ (6.0 ≦ pIC50)
18 | N[C@H]1CC[C@H](Oc2c(Cl)cc3cnccc3c2Cl)CC1 [Example 96, trans-4-(5,7-Dichloro-isoquinolin-6-yloxy)-cyclohexylamine] | +++++ (6.0 ≦ pIC50)
19 | N[C@H]1CC[C@@H](Oc2ccc3cnc(Nc4cccc(Cl)c4)cc3c2)CC1 [Example 147, cis-[6-(4-Amino-cyclohexyloxy)-isoquinolin-3-yl]-(3-chloro-phenyl)-amine] | ++++ (5.0 ≦ pIC50 < 6.0)
20 | COc1cc(Nc2cc3cc(O[C@H]4CC[C@@H](N)CC4)ccc3cn2)cc(OC)c1OC.Cl [Example 149, cis-[6-(4-Amino-cyclohexyloxy)-isoquinolin-3-yl]-(3,4,5-trimethoxy-phenyl)-amine] | +++++ (6.0 ≦ pIC50)
21 | N[C@H]1CC[C@@H](Oc2ccc3cnc(Nc4cnccn4)cc3c2)CC1 [Example 150, cis-[6-(4-Amino-cyclohexyloxy)-isoquinolin-3-yl]-pyrazin-2-yl-amine] | ++++ (5.0 ≦ pIC50 < 6.0)
22 | CCc1cncc2ccc(O[C@H]3CC[C@@H](N)CC3)cc12 [Example 156, cis-4-(4-Ethyl-isoquinolin-6-yloxy)-cyclohexylamine] | +++++ (6.0 ≦ pIC50)
